The source of these data is ChEMBL document CHEMBL1129269, “1-aryl-4-[(1-tetralinyl)alkyl]piperazines: alkylamido and alkylamino derivatives. Synthesis, 5-HT1A receptor affinity, and selectivity. 3” (J Med Chem, 1996).

Assay [1] deals with Serotonin 2 (5-HT2) receptor (Rattus norvegicus, UniProt P30994+P08909+P14842). Briefly: Binding affinity against 5-hydroxytryptamine 2 receptor in rat brain using [3H]ketanserin as radioligand. It counts as tissue-based.
The target in assay [2] is T1, Adrenergic receptor alpha-2 (Rattus norvegicus, UniProt P22086+P19328+P22909).
T1 sequence (P22086 whole entry): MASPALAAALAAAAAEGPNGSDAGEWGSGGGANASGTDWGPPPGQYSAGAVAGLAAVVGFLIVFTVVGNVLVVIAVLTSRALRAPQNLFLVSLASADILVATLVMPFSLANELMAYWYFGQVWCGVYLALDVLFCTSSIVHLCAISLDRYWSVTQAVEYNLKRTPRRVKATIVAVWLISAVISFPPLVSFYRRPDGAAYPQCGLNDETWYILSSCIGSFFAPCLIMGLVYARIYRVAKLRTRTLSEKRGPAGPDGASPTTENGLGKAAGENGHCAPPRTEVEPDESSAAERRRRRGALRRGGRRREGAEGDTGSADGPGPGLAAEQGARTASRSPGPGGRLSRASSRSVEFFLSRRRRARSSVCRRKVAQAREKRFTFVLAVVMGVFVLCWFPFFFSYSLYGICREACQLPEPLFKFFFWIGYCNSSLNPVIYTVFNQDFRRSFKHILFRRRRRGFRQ
T1 sequence (P19328 whole entry): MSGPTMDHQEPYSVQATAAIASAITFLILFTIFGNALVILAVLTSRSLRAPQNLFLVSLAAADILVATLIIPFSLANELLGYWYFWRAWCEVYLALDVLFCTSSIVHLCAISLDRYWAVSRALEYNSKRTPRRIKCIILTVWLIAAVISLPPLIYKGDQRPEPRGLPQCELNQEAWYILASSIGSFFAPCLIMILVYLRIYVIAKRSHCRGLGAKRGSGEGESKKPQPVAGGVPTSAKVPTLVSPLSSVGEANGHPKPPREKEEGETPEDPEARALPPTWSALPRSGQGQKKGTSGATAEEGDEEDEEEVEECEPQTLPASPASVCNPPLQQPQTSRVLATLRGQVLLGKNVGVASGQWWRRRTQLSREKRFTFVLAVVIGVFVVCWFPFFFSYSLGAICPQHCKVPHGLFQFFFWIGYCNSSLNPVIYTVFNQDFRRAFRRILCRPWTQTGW
T1 sequence (P22909 whole entry): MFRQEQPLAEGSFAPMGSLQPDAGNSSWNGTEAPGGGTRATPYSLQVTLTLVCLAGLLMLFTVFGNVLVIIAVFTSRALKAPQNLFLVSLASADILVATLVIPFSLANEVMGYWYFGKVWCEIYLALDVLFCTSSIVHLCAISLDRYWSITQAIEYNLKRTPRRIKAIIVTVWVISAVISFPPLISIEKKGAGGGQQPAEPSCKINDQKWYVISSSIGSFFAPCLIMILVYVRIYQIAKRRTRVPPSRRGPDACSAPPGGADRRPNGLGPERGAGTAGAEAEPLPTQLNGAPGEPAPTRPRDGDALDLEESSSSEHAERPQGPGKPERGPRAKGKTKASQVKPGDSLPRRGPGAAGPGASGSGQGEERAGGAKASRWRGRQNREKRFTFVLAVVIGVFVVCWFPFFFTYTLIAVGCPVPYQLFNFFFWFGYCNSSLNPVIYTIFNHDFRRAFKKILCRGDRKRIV
Kind of assay: Binding affinity against Alpha-2 adrenergic receptor in rat brain membrane using [3H]yohimbine as radioligand. The assay is classed as cell membranes.

The target of assay [3] is T2, D(2) dopamine receptor (Rattus norvegicus, UniProt P61169). Briefly: biochemical.
Description: Binding affinity to rat Dopamine receptor D2 expressed in CHO cells was determined using [125 I ] iodosulpride as radioligand
In assay [4] the target is T3, 5-hydroxytryptamine receptor 1A (Rattus norvegicus, UniProt P19327).
T3 sequence (P19327 whole entry): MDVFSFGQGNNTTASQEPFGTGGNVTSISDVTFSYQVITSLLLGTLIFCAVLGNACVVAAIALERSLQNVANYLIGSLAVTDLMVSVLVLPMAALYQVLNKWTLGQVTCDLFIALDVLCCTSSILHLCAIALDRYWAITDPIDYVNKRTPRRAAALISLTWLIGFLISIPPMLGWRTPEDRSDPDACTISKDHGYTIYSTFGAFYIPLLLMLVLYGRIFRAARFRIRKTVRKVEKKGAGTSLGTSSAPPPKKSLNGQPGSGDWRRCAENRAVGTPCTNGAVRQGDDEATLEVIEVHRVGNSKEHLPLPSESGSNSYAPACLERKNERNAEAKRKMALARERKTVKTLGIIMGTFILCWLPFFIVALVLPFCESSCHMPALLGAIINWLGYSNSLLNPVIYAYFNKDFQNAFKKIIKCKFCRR
Kind of assay: Binding affinity against 5-hydroxytryptamine 1A receptor in rat hippocampus membranes using [3H]8-OH-DPAT as radioligand. It counts as cell membranes, Membrane.

Assay [5] deals with T4, Adrenergic receptor alpha-1 (Rattus norvegicus, UniProt P15823+P23944+P43140).
T4 sequence (P15823 whole entry): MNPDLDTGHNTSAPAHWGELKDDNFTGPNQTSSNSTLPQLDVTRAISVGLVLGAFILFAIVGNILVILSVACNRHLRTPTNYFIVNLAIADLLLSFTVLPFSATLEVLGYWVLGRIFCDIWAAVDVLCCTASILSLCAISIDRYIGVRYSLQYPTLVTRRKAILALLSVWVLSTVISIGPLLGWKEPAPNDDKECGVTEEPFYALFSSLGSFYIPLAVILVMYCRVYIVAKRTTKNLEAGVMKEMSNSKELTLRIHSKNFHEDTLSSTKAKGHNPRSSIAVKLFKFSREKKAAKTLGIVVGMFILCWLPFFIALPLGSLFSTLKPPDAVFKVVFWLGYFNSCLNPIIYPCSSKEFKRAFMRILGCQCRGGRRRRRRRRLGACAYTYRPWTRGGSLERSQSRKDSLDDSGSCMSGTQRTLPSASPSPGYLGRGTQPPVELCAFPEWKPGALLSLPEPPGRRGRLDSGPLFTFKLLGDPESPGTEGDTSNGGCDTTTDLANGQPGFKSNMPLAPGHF
T4 sequence (P23944 whole entry): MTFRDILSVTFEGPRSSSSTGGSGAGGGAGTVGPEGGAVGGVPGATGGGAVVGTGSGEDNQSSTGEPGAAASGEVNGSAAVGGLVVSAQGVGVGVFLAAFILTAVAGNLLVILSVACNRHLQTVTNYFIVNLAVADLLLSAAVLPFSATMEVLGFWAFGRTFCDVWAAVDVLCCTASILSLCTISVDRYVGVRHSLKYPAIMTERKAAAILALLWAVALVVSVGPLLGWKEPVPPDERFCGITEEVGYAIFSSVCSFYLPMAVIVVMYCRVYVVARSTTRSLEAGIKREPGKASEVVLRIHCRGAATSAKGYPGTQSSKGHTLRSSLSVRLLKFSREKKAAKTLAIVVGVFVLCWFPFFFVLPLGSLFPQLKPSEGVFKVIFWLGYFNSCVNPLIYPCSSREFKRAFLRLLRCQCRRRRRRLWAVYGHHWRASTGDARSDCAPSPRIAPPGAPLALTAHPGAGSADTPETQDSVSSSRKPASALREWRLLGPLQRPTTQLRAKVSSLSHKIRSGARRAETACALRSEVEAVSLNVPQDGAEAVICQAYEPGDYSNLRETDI
T4 sequence (P43140 whole entry): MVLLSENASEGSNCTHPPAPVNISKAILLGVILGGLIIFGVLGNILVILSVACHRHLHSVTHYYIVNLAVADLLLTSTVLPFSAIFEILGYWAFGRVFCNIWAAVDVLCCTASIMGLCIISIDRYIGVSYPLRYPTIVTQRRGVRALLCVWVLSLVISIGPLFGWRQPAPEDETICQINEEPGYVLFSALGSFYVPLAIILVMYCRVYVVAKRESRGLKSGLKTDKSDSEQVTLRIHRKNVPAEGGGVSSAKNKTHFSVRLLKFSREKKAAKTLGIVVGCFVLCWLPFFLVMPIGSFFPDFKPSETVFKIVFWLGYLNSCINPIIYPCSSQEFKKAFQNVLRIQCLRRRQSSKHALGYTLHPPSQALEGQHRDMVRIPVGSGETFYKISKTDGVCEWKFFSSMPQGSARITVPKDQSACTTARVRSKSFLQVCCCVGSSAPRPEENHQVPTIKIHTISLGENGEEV
Kind of assay: Binding affinity against Alpha-1 adrenergic receptor in rat brain membrane using [3H]prazosin as radioligand. It counts as cell membranes.

For assay [6], the target named is T2, D(2) dopamine receptor. Briefly: Compound was evaluated for their affinity against Dopamine receptor D2 by displacing [3H]spiperone in rat striatal membrane. It counts as cell membranes, Striatum.
The target in assay [7] is T3, 5-hydroxytryptamine receptor 1A. Kind of assay: Binding affinity against serotonin 5-hydroxytryptamine 1A receptor in rat hippocampus membrane using [3H]8-OH-DPAT as radioligand. It counts as cell membranes.
For assay [8], the target named is T2, D(2) dopamine receptor. Kind of assay: Binding affinity against Dopamine receptor D2 in rat striatal membrane using [3H]spiroperidol as radioligand. It counts as cell membranes, Striatum.

A value given as a limit tells only on which side of the number the result lay.

T2 sequence (P61169 whole entry): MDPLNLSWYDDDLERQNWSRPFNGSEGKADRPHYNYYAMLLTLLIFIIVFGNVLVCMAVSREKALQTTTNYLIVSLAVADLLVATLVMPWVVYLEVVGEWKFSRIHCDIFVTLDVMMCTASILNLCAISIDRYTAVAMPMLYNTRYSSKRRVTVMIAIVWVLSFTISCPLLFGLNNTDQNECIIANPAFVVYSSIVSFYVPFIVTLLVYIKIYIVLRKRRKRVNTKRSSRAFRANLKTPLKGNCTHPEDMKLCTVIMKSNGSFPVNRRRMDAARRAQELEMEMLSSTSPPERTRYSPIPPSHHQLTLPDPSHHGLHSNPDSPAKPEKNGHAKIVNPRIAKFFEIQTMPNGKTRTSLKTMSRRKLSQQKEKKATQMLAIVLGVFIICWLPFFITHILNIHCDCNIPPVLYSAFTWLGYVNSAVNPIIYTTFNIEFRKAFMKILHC

For `CCCN(CCC)C1CCc2cccc(O)c2C1` (stereo not drawn) [8-OH-DPAT], the IC50 is over 10000 nM in assay [1], 810 nM in assay [2] and 5.2 nM in assay [3].
For `COc1ccccc1N1CCN(CCNC2CCCc3c(OC)cccc32)CC1` (stereo not drawn), the IC50 in assay [4] was 7.7 nM; in assay [1] it was 2580 nM; in assay [2], 280 nM; in assay [5] it was 220 nM; in assay [6], 380 nM.
As to `COc1ccccc1N1CCN(CCCNC(=O)C2CCCc3c(OC)cccc32)CC1` (stereo not drawn), the IC50 came to 16 nM in assay [7]; 2040 nM in assay [1]; 564 nM in assay [2]; 84 nM in assay [5]; 116 nM in assay [8].
With `COc1cccc2c1CCCC2CCCN1CCN(c2ccccn2)CC1` (stereo not drawn), the IC50 in assay [7] was 0.54 nM; in assay [1], 250 nM; in assay [2], 48 nM; in assay [5], 66 nM; in assay [3], 140 nM.
Taken in the same sequence, the figures for `COc1cccc2c1CCCC2CCCN1CCN(c2ccccc2)CC1` (stereo not drawn) were 0.5 nM, 230 nM, 260 nM, 43 nM and 110 nM.
For `COc1cccc2c1CCCC2C(=O)NCCCN1CCN(c2ccccc2)CC1` (stereo not drawn), the IC50 in assay [7] worked out at 63 nM; in assay [1], 349 nM; in assay [2] it was 186 nM; in assay [5], 19 nM; in assay [8] it was 783 nM.
